Measurements as given in patent publication US20260132125A1, “PESTICIDALLY ACTIVE FUSED BICYCLIC HETEROAROMATIC COMPOUNDS” (priority 2022, published 2026).

What was measured:
Type in all cases: in vivo
Diabrotica balteata = assay: Example B2: activity against Diabrotica balteata (corn root worm), maize sprouts; conditions: 96 h, L2 larvae, 4 days after infestation, read-out: effect in at least one of the two categories (mortality or growth inhibition)
Experimental: Maize sprouts placed onto an agar layer in 24-well microtiter plates were treated with aqueous test solutions prepared from 10′000 ppm DMSO stock solutions by spraying. After drying, the plates were infested with L2 larvae (6 to 10 per well). The samples were assessed for mortality and growth inhibition in comparison to untreated samples 4 days after infestation. The following compounds gave an effect of at least 80% in at least one of the two categories (mortality or growth inhibition) at an application rate of 200 ppm: P1, P2, P3, P4, P5, P7, P8, P9, P10, P11, P12, P13, P14, P15, P16, P17, P18, P19, P20, P21, P22, P23, P24, P25, P26, P27, P28, P29, P30, P31, P33, P34, P35, P36, P37, P38, P39, P40, P41, P42, P43, P45, P46, P47, P48, P49, P50, P51, P52, P53, P55, P57, P58, P59, P60, P61, P62, P63, P64, P65, P66, P67, P69, P71, P75, P81, P82, P83.

Spodoptera littoralis = assay: Example B6: activity against Spodoptera littoralis (Egyptian cotton leaf worm), cotton leaf discs; conditions: foliar; for percent control (mortality, anti-feedant effect or growth inhibition) at 200 ppm: 72 h, L1 larvae, 3 days after infestation, read-out: control (at least one of mortality, anti-feedant effect, growth inhibition)
Experimental: Cotton leaf discs were placed onto agar in 24-well microtiter plates and sprayed with aqueous test solutions prepared from 10′000 ppm DMSO stock solutions. After drying the leaf discs were infested with five L1 larvae. The samples were assessed for mortality, anti-feeding effect, and growth inhibition in comparison to untreated samples 3 days after infestation. Control of Spodoptera littoralis by a test sample is given when at least one of the categories mortality, anti-feedant effect, and growth inhibition is higher than the untreated sample.

Myzus persicae = assay: Example B4: activity against Myzus persicae (green peach aphid), intrinsic activity; conditions: 120 h, test rate 12 ppm, 5 days after infestation
Experimental: Test compounds prepared from 10′000 ppm DMSO stock solutions were applied by pipette into 24-well microtiter plates and mixed with sucrose solution. The plates were closed with a stretched Parafilm. A plastic stencil with 24 holes was placed onto the plate and infested pea seedlings were placed directly on the Parafilm. The infested plate was closed with a gel blotting paper and another plastic stencil and then turned upside down. The samples were assessed for mortality 5 days after infestation.

Plutella xylostella = assay: Example B5: activity against Plutella xylostella (diamond back moth), artificial diet, eggs; conditions: 192 h, 8 days after infestation, read-out: effect in at least one of the two categories (mortality or growth inhibition)
Experimental: 24-well microtiter plates with artificial diet were treated with aqueous test solutions prepared from 10′000 ppm DMSO stock solutions by pipetting. After drying, Plutella eggs were pipetted through a plastic stencil onto a gel blotting paper and the plate was closed with it. The samples were assessed for mortality and growth inhibition in comparison to untreated samples 8 days after infestation. The following compounds gave an effect of at least 80% in at least one of the two categories (mortality or growth inhibition) at an application rate of 200 ppm: P1, P2, P3, P4, P5, P6, P7, P8, P9, P10, P11, P12, P13, P14, P15, P16, P17, P18, P19, P20, P21, P22, P23, P24, P25, P26, P27, P28, P29, P30, P31, P32, P33, P34, P35, P36, P37, P38, P39, P40, P41, P42, P43, P44, P45, P46, P47, P48, P49, P50, P51, P52, P53, P54, P55, P57, P58, P59, P60, P61, P62, P63, P64, P65, P66, P67, P69, P70, P71, P72, P73, P74, P75, P77, P78, P81, P82, P83.

Chilo suppressalis = assay: Example B1: activity against Chilo suppressalis (striped rice stemborer), artificial diet; conditions: 144 h, 200 ppm, L2 larvae, 6 days after infestation, read-out: control (at least one of mortality, anti-feedant effect, growth inhibition)
Experimental: 24-well microtiter plates with artificial diet were treated with aqueous test solutions prepared from 10′000 ppm DMSO stock solutions by pipetting. After drying, the plates were infested with L2 larvae (6-8 per well). The samples were assessed for mortality, anti-feeding effect, and growth inhibition in comparison to untreated samples 6 days after infestation. Control of Chilo suppressalis by a test sample is given when at least one of the categories mortality, anti-feedant effect, and growth inhibition is higher than the untreated sample.

| Structure (SMILES) | percent effect (mortality or growth inhibition) at 200 ppm (Diabrotica balteata) [%] | percent control (mortality, anti-feedant effect or growth inhibition) at 200 ppm (Spodoptera littoralis) [%] | mortality at 12 ppm (Myzus persicae) [%] | percent effect (mortality or growth inhibition) at 200 ppm (Plutella xylostella) [%] | percent control (mortality, anti-feedant effect or growth inhibition) at 200 ppm (Chilo suppressalis) [%] | mortality at 50 ppm (Spodoptera littoralis; 50 ppm) [%] |
| --- | --- | --- | --- | --- | --- | --- |
| C[C@H](Nc1ncnc2c(I)cc(Cl)cc12)c1ncnn1-c1cc(C(=O)N(C)C)ncn1 [Compound P65, 6-[5-[(1S)-1-[(6-chloro-8-iodo-quinazolin-4-yl)amino]ethyl]-1,2,4-triazol-1-yl]-N,N-dimethyl-pyrimidine-4-carboxamide] | ≥ 80 | ≥ 80 | ≥ 80 | ≥ 80 | ≥ 80 | – |
| C[C@H](Nc1ncnc2c(C(F)(F)F)cc(Cl)cc12)c1ncnn1-c1cc(C(=O)NCCC#N)ncn1 [Compound P39] | ≥ 80 | ≥ 80 | ≥ 80 | ≥ 80 | ≥ 80 | – |
| C[C@H](Nc1ncnc2c(C(F)(F)F)cc(Cl)cc12)c1ncnn1-c1cc(C(=O)NC2CC2)ncn1 [Compound P23, 6-[5-[(1S)-1-[[6-chloro-8-(trifluoromethyl)quinazolin-4-yl]amino]ethyl]-1,2,4-triazol-1-yl]-N-cyclopropyl-pyrimidine-4-carboxamide] | ≥ 80 | ≥ 80 | ≥ 80 | ≥ 80 | ≥ 80 | – |
| C[C@H](Nc1ncnc2c(C(F)(F)F)cc(Cl)cc12)c1ncnn1-c1cc(C(=O)NC2CS(=O)(=O)C2)ncn1 [Compound P24, 6-[5-[(1S)-1-[[6-chloro-8-(trifluoromethyl)quinazolin-4-yl]amino]ethyl]-1,2,4-triazol-1-yl]-N-(1,1-dioxothietan-3-yl)pyrimidine-4-carboxamide] | ≥ 80 | ≥ 80 | ≥ 80 | ≥ 80 | ≥ 80 | – |
| C[C@H](Nc1ncnc2c(Br)cc(Br)cc12)c1ncnn1-c1ncc(C(N)=O)s1 [Compound P36, 2-[5-[(1S)-1-[(6,8-dibromoquinazolin-4-yl)amino]ethyl]-1,2,4-triazol-1-yl]thiazole-5-carboxamide] | ≥ 80 | ≥ 80 | ≥ 80 | ≥ 80 | ≥ 80 | – |
| CNC(=O)c1cc(-n2ncnc2[C@H](C)N(C)c2ncnc3c(Br)cc(Br)cc23)ncn1 [Compound P11, 6-[5-[(1S)-1-[(6,8-dibromoquinazolin-4-yl)-methyl-amino]ethyl]-1,2,4-triazol-1-yl]-N-methyl-pyrimidine-4-carboxamide] | ≥ 80 | ≥ 80 | ≥ 80 | ≥ 80 | ≥ 80 | – |
| C[C@@H](c1ncnn1-c1cc(C(N)=O)ncn1)N(C)c1ncnc2c(Cl)cc(I)cc12 [Compound P49, 6-[5-[(1S)-1-[(8-chloro-6-iodo-quinazolin-4-yl)-methyl-amino]ethyl]-1,2,4-triazol-1-yl]pyrimidine-4-carboxamide] | ≥ 80 | ≥ 80 | ≥ 80 | ≥ 80 | ≥ 80 | – |
| C[C@@H](c1ncnn1-c1cc(C(=O)N(C)CC2CC2)ncn1)N(C)c1ncnc2c(C(F)(F)F)cc(Cl)cc12 [Compound P83, 6-[5-[(1S)-1-[[6-chloro-8-(trifluoromethyl)quinazolin-4-yl]-methyl-amino]ethyl]-1,2,4-triazol-1-yl]-N-(cyclopropylmethyl)-N-methyl-pyrimidine-4-carboxamide] | ≥ 80 | ≥ 80 | ≥ 80 | ≥ 80 | ≥ 80 | – |
| C[C@H](Nc1ncnc2c(C(F)(F)F)cc(Cl)cc12)c1ncnn1-c1cc(C(=O)NO)ncn1 [Compound P26, 6-[5-[(1S)-1-[[6-chloro-8-(trifluoromethyl)quinazolin-4-yl]amino]ethyl]-1,2,4-triazol-1-yl]pyrimidine-4-carbohydroxamic acid] | ≥ 80 | ≥ 80 | ≥ 80 | ≥ 80 | ≥ 80 | – |
| CNC(=O)c1cc(-n2ncnc2[C@H](C)Nc2ncnc3c(Br)cc(Br)cc23)ncn1 [Compound P12, 6-[5-[(1S)-1-[(6,8-dibromoquinazolin-4-yl)amino]ethyl]-1,2,4-triazol-1-yl]-N-methyl-pyrimidine-4-carboxamide] | ≥ 80 | ≥ 80 | ≥ 80 | ≥ 80 | ≥ 80 | – |
| C[C@H](Nc1ncnc2c(Cl)cc(I)cc12)c1ncnn1-c1ncc(C(N)=O)s1 [Compound P37, 2-[5-[(1S)-1-[(8-chloro-6-iodo-quinazolin-4-yl)amino]ethyl]-1,2,4-triazol-1-yl]thiazole-5-carboxamide] | ≥ 80 | ≥ 80 | ≥ 80 | ≥ 80 | ≥ 80 | 100 |
| C[C@H](Nc1ncnc2c(Cl)cc(I)cc12)c1ncnn1-c1cc(C#N)ncn1 [Compound P18, 6-[5-[(1S)-1-[(8-chloro-6-iodo-quinazolin-4-yl)amino]ethyl]-1,2,4-triazol-1-yl]pyrimidine-4-carbonitrile] | ≥ 80 | ≥ 80 | ≥ 80 | ≥ 80 | ≥ 80 | – |
| C[C@@H](c1ncnn1-c1cc(C(=O)N(C)C2CC2)ncn1)N(C)c1ncnc2c(C(F)(F)F)cc(Cl)cc12 [Compound P81, 6-[5-[(1S)-1-[[6-chloro-8-(trifluoromethyl)quinazolin-4-yl]-methyl-amino]ethyl]-1,2,4-triazol-1-yl]-N-cyclopropyl-N-methyl-pyrimidine-4-carboxamide] | ≥ 80 | ≥ 80 | ≥ 80 | ≥ 80 | ≥ 80 | – |
